Usually IC50 stands for the point on the concentration scale where inhibition reaches its midpoint.

Here are results for six molecules from patent US8841425B2, “Cytotoxic agents comprising new maytansinoids” (ImmunoGen, Inc., priority 2003, dated 2014).

Entries after “also recorded” stand apart in the source; their conditions may differ. Some results are limits rather than exact numbers.

Assay [1] concerns human B-16 melanocarcinoma system. The conditions noted are these: in vivo; cited from earlier work.
The subject of assay [2] is human nasopharyngeal carcinoma cells. The conditions noted are these: cited from earlier work.
For assay [3], the system named is L1210 mouse leukemia system. The conditions noted are these: in vivo; cited from earlier work.
Assay [4] has as its system Lewis lung carcinoma system. The conditions noted are these: in vivo; cited from earlier work.
The subject of a further assay is L1210 cells. The following applies: L1210 cells treated in vivo; cited from earlier work.
The subject of assay [5] is human acute lymphoblastic leukemia line CEM. The conditions noted are these: in vitro; cited from earlier work.
In a further assay the test system is SK-BR-3 cells. Briefly: In vitro cytotoxicity, clonogenic assay, SK-BR-3 cells. Format: cell-based, human. The conditions noted are these: free maytansinoid, 72 hours exposure, read-out: IC50 towards SK-Br-3 cells. As to the method: (§1) The KB (ATCC CCl-17) cell line is of human epithelial origin. The SK-BR-3 (ATCC HTB-30) cell line was established from a human breast adenocarcinoma. The human colon tumor cell lines COLO 205 (ATCC CCL-222) and HT-29 (ATCC HTB 38), the human melanoma cell line A-375 (ATCC CRL 1619), the human Burkitts lymphoma cell line Ramos (ATCC CRL-1596) and the human myeloid leukemia cell line HL-60 (ATCC CCL-240) were all obtained from ATCC, Maryland. Cell lines were grown in Dulbecco's modified Eagles Medium (DMEM, Biowhittaker, Walkersville, Md.) with L-glutamine supplemented with 10% fetal bovine serum (Hyclone, Logan, Utah) and 50 μg/mL gentamycin sulfate (Life Technologies, Rockville, Md.). Cells were maintained at 36-37.5° C. in a humidified atmosphere that contained 6% CO2.
The cytotoxicity study performed used a clonogenic assay. The test cell lines were plated into 6-well culture dishes at a constant number of 1000 cells per well. […] The cultures were then fixed and stained with 0.2% crystal violet in 10% formalin/PBS and colonies were counted. Plating efficiency of non-treated cells (medium alone) was determined by dividing the number of colonies counted by the number of cells plated. Surviving fraction of cells exposed to the drugs was determined by dividing the number of colonies in wells that were exposed to the drug by the number of colonies in the control wells.

In assay [6] the test system is human melanoma cell line A-375. Nature of the assay: In vitro cytotoxicity, clonogenic assay, A-375 cells. The conditions noted are these: for IC50: free maytansinoid, 72 hours exposure, clonogenic assay, read-out: IC50 towards A-375 cells; for fold less sensitive, antigen negative A-375 cells versus COLO 205 cells: antibody-maytansinoid conjugate. Format: cell-based. As to the method: as §1
The cytotoxicity study performed used a clonogenic assay. The test cell lines were plated into 6-well culture dishes at a constant number of 1000 cells per well. Cells were incubated with varying concentrations (0 to 3 nM) of the various maytansinoids (free or conjugated to antibodies) for 72 hours. The medium was then aspirated from the plates and replaced with fresh medium. Cultures were allowed to grow, and form colonies, for a total of 7-10 days after plating. The cultures were then fixed and stained with 0.2% crystal violet in 10% formalin/PBS and colonies were counted. Plating efficiency of non-treated cells (medium alone) was determined by dividing the number of colonies counted by the number of cells plated. Surviving fraction of cells exposed to the drugs was determined by dividing the number of colonies in wells that were exposed to the drug by the number of colonies in the control wells.

In assay [7] the test system is HT-29 human colon tumor xenografts. Nature of the assay: In vivo efficacy against HT-29 xenografts. Also noted: species or system mouse. The conditions noted are these: SCID mice, maytansinoid dose of 75 μg/kg, qd×5, intravenously. As to the method:
(§2) Five-week-old female SCID mice (20 animals) were inoculated subcutaneously in the right flank with HT-29 human colon carcinoma cells (1.5×10^6 cells/mouse) in 0.1 mL of serum-free medium. The tumors were grown for 11 days to an average size of 100 mm^3. The animals were then randomly divided into four groups (5 animals per group). The first group received huC242-DM1 conjugate (DM1 dose of 75 μg/kg, qd×5) administered intravenously. The second group received huC242-DM3 conjugate (DM3 dose of 75 μg/kg, qd×5) administered intravenously. The third group received huC242-DM4 conjugate (DM4 dose of 75 μg/kg, qd×5), while a fourth group of animals served as controls and received PBS using the same treatment schedule as in groups 1-3.
The sizes of the tumors were measured twice weekly and the tumor volumes were calculated with the formula: tumor volume=½(length×width×height). The weight of the animals was also measured twice per week. The tumors in the control group of mice grew to a size of nearly 1000 mm^3 in 35 days.

The test system of assay [8] is antigen positive COLO 205 cells. Briefly: In vitro cytotoxicity of antibody-maytansinoid conjugates, clonogenic assay, COLO 205 cells. It counts as cell-based, human. The following applies: antibody-maytansinoid conjugate; read-out: IC50 towards antigen positive COLO 205 cells. As to the method:
Conjugates of cell-binding agents with maytansinoid drugs of the invention can be evaluated for their ability to suppress proliferation of various unwanted cell lines in vitro (FIG. 6). For example, cell lines such as the human colon carcinoma line COLO 205, the human melanoma cell line A-375, the human myeloid leukemia cell line HL60 can be used for the assessment of cytotoxicity of these conjugates. Cells to be evaluated can be exposed to the compounds for 24 hours and the surviving fractions of cells measured in direct assays by known methods. IC50 values can then be calculated from the results of the assays.
The KB (ATCC CCl-17) cell line is of human epithelial origin. The SK-BR-3 (ATCC HTB-30) cell line was established from a human breast adenocarcinoma. […]
The cytotoxicity study performed used a clonogenic assay. […] The cultures were then fixed and stained with 0.2% crystal violet in 10% formalin/PBS and colonies were counted. Plating efficiency of non-treated cells (medium alone) was determined by dividing the number of colonies counted by the number of cells plated. Surviving fraction of cells exposed to the drugs was determined by dividing the number of colonies in wells that were exposed to the drug by the number of colonies in the control wells.

For assay [9], the system named is COLO 205 human colon tumor xenografts. Briefly: In vivo efficacy against COLO 205 xenografts. Also noted: species or system mouse. The following applies: SCID mice, maytansinoid dose of 75 μg/kg, qd×5, intravenously. As to the method:
as §2, with “COLO 205” for “HT-29”
The sizes of the tumors were measured twice weekly and the tumor volumes were calculated with the formula: tumor volume=½(length×width×height). The weight of the animals was also measured twice per week. The tumors in the control group of mice grew to a size of nearly 900 mm^3 in 24 days.

Assay [10] relates to human HL-60 tumor xenografts. Nature of the assay: In vivo efficacy of huMy9-6-DM4 against HL-60 xenografts in SCID mice (FIG. 11). Also noted: species or system mouse. As to the method: The efficacy of huMy9-6-DM4 in vivo was determined in SCID mice bearing human HL-60 tumor xenografts. HL-60 cells were injected subcutaneously and tumors were allowed to grow to an average size of 100 mm^3. Dosage is expressed as μg DM4 in the conjugate, which corresponds to an antibody dose of approximately 67 μg antibody per μg of DM4. […] The efficacy of huMy9-6-DM4 was also compared with that of huMy9-6-DM1. […] HuMy9-6-DM4 maintained the animals in complete remission (CR) for nearly sixty days, whereas animals treated with huMy9-6-DM1 relapsed after about 20 days in CR.

Regarding `COc1cc2cc(c1Cl)N(C)C(=O)C[C@H](OC(=O)[C@H](C)N(C)C(C)=O)[C@]1(C)O[C@H]1[C@H](C)[C@@H]1C[C@@](O)(NC(=O)O1)[C@H](OC)/C=C/C=C(\C)C2` [maytansine, Maytansine], the inhibitory activity result in assay [1], in assay [3] and in assay [4] was “significant inhibitory activity” each time. In addition, the “inhibition of in vitro growth” value in assay [2] is recorded as “active inhibitor”. For the same molecule, the “cells accumulating in mitosis” value in the assay on L1210 cells is listed as 67%. In addition, the “inhibitory concentration, as low as” value in [5] is ≥ 10^−7 μg/ml.

On to `COc1cc2cc(c1Cl)N(C)C(=O)C[C@H](OC(=O)[C@H](C)N(C)C(=O)CCC(C)SSC)[C@]1(C)O[C@H]1[C@H](C)[C@@H]1C[C@@](O)(NC(=O)O1)[C@H](OC)/C=C/C=C(\C)C2` (some centres unmarked) [4c, N^2′-deacetyl-N^2′-(4-methyldithio-1-oxopentyl)maytansine], for which the IC50 in the assay on SK-BR-3 cells stood at 0.007 nM; in [6], 0.015 nM.

Consider `COc1cc2cc(c1Cl)N(C)C(=O)CC(OC(=O)[C@@H](C)N(C)C(=O)CCC(C)(C)SSC)C1(C)OC1C(C)C1CC(O)(NC(=O)O1)C(OC)/C=C/C=C(\C)C2` (some centres unmarked) [4e, N^2′-deacetyl-N^2′-(4-methyl-4-methyldithio-1-oxopentyl)maytansine], for which the IC50 in the assay on SK-BR-3 cells was determined as 0.009 nM; in assay [6] it was 0.032 nM.

B1: huC242-DM3: huC242 antibody linked to DM3 (4a), on the average 3.2-3.5 DM3 molecules per antibody molecule (conjugate, chains of the INN, looked up)
VH: QVQLVQSGAEVKKPGETVKISCKASDYTFTYYGMNWVKQAPGQGLKWMGWIDTTTGEPTYAQKFQGRIAFSLETSASTAYLQIKSLKSEDTATYFCARRGPYNWYFDVWGQGTTVTVSS
VL: DIVMTQSPLSVPVTPGEPVSISCRSSKSLLHSNGNTYLYWFLQRPGQSPQLLIYRMSNLVSGVPDRFSGSGSGTAFTLRISRVEAEDVGVYYCLQHLEYPFTFGPGTKLELK
modifications: DM3 maytansinoid conjugate
notes: huC242 antibody linked to DM3 (4a), on the average 3.2-3.5 DM3 molecules per antibody molecule
As for B1, the tumor growth delay in assay [7] is reported as 28 days. Besides, in assay [8], the IC50 was determined as 0.013 nM. The “fold less sensitive, antigen negative A-375 cells versus COLO 205 cells” value in assay [6] was “about 500 fold”. In [9], the “complete tumor regression lasting” value is 45 days.

B2: huC242-DM4: huC242 antibody linked to DM4 (4b), on the average 3.2-3.5 DM4 molecules per antibody molecule (conjugate, chains of the INN, looked up)
VH: QVQLVQSGAEVKKPGETVKISCKASDYTFTYYGMNWVKQAPGQGLKWMGWIDTTTGEPTYAQKFQGRIAFSLETSASTAYLQIKSLKSEDTATYFCARRGPYNWYFDVWGQGTTVTVSS
VL: DIVMTQSPLSVPVTPGEPVSISCRSSKSLLHSNGNTYLYWFLQRPGQSPQLLIYRMSNLVSGVPDRFSGSGSGTAFTLRISRVEAEDVGVYYCLQHLEYPFTFGPGTKLELK
modifications: DM4 maytansinoid conjugate
notes: huC242 antibody linked to DM4 (4b), on the average 3.2-3.5 DM4 molecules per antibody molecule
Molecule B2 showed a tumor growth delay in [7] of 36 days. Besides, the IC50 in assay [8] stood at 0.011 nM. Also, in assay [6], the “fold less sensitive, antigen negative A-375 cells versus COLO 205 cells” value is recorded as “about 500 fold”. Besides, the “tumor response (regression, cures)” value in assay [9] is on record as “cures of all the treated mice; also recorded: cures of all the treated animals”.

B3: huMy9-6-DM1: huMy9-6 conjugate of a previously described maytansinoid (DM1) (conjugate, chains of the INN, looked up)
VH: QVQLVESGGGVVQPGRSLRLSCAASGFTFSSFGMHWVRQAPGKGLEWVAYISSGSFTIYYADSVKGRFTISRDNSKNTLYLQMNSLRAEDTAVYYCARMRKGYAMDYWGQGTLVTVSS
VL: DVVMTQSPLSLPVTLGQPASISCRSSQIIIHSDGNTYLEWFQQRPGQSPRRLIYKVSNRFSGVPDRFSGSGSGTDFTLKISRVEAEDVGVYYCFQGSHVPHTFGQGTKVEIK
modifications: DM1 maytansinoid conjugate
Take B3: the “time in complete remission (CR)” value in assay [10] (SCID mice, i.v. once a day for 5 days) is “about 20 days”. Also, the tumor growth delay result in assay [10] (subcutaneous HL-60 xenograft, equivalent dose, FIG. 11) is “about 48 days”.
